The source made the active and inactive calls. No rule for the calls is given here.
The molecules below were run against Ribonuclease HI (Escherichia coli (strain K12)) (UniProt P0A7Y4) (assay: E. coli RNase HI inhibitors, dose response, biochemical, FRET RNA/DNA duplex cleavage (AID 365)). Conditions: E. coli RNase H, FRET RNA/DNA cleavage fluorescence.
Ribonuclease HI (Escherichia coli (strain K12)), sequence (P0A7Y4 whole entry, looked up): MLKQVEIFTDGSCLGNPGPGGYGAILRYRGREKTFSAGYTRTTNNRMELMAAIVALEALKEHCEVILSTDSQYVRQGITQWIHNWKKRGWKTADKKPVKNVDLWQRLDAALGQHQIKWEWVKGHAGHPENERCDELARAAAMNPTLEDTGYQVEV
`CCCc1cc(=O)oc2c3c(c4c(c12)OC(C)(C)C=C4)O[C@H](C)[C@@H](C)[C@H]3OC` was tested, and the IC50 was “inactive”. In the case of `CCCCCCCCCCCCCCCCCCOCC(O)CO` (stereo not given), the IC50 is reported as > 100 µM (inactive). With `CN(C)CN1CSC(=S)N(CN(C)C)C1` the IC50 was “inactive”. `COc1cccc(-c2nc3cc(NC(=O)/C=C\c4ccccc4)ccc3o2)c1` showed an IC50 of 3.7 µM. With `O=C1Nc2ccc(I)cc2C1(O)N1CCOCC1` (stereo not given) the IC50 was 0.8 µM. For `COC(=O)c1cc2cc3cc4cc(CC(=O)O)c(C(=O)/C=C(\O)c5ccccc5O)c(OC)c4c(OC)c3c(O)c2c(=O)o1`, the IC50 was “inactive”. `O=C1C=CC(=O)C(c2cc(Cl)ccc2Cl)=C1` was tested, and the IC50 was 9.2 µM. `Nc1c(S(=O)(=O)O)cc(Nc2cccc(S(N)(=O)=O)c2)c2c1C(=O)c1ccccc1C2=O` was tested, and the IC50 was “inactive”. `O=C(O)c1cc(-c2ccc(/C=C3/Sc4ccccc4C3=O)o2)ccc1O` showed an IC50 of 1 µM. Molecule `CCCCCCCCCCCCCCCC(=O)OCC1OC(n2ccc(N)nc2=O)C(O)C1O` (stereo not given) has an IC50 of 0.64 µM. In the case of `Oc1cc(O)c2c(c1)OC(c1ccc(O)c(O)c1)C(OC1(c3cc(O)c(O)c(O)c3)Oc3cc(O)cc(O)c3C(O)C1O)C2` (stereo not given), the IC50 is reported as > 100 µM (inactive). For `O=C1C=CC2=C3c4cc(O)c(O)cc4CC3(O)COC2=C1O` (stereo not given), the IC50 was “inactive”. In the case of `NCC[Se][Se]CCN`, the IC50 is reported as > 100 µM (inactive). `CN(C)CS/C(N)=N/C(O)C(Cl)(Cl)Cl` (stereo not given) was tested, and the IC50 was “inactive”. For `O=[N+]([O-])c1c(Cl)cccc1-c1c[nH]cc1Cl`, the IC50 was > 100 µM (inactive). `O=C1NC(=S)N(c2ccccc2F)C(=O)/C1=C/c1ccc(I)o1` gave an IC50 of 7.3 µM. In the case of `C=Cc1c(C)c2cc3[nH]c(cc4nc(cc5nc(cc1[nH]2)C(C)=C5CCC(=O)O)C(CCC(=O)O)=C4C)c(C)c3C=C`, the IC50 is reported as “inactive”. Molecule `O=S(=O)(O)c1cc(N=[N+]([O-])c2cc(S(=O)(=O)O)c3ccccc3c2)cc2ccccc12` has an IC50 of 0.7 µM. With `Cc1ccc(S(=O)(=O)N=C2C=C(Cl)C(=O)C(Br)=C2)cc1` the IC50 was “inactive”. `COc1ccc(C2COc3cc(O)c(O)cc3C2)cc1` (stereo not given) was tested, and the IC50 was “inactive”. In the case of `Nc1cc(S(N)(=O)=O)ccc1SSc1ccc(S(N)(=O)=O)cc1N`, the IC50 is reported as > 100 µM (inactive). `O=C1NN(c2ccc(I)cc2)C(=O)/C1=C\c1ccc(O)c(O)c1` showed an IC50 of 3.5 µM. `O=C(O)c1c(Br)c(Br)c(Br)c(Br)c1C1c2ccc(O)cc2Oc2cc(O)ccc21` was tested, and the IC50 was 8 µM. For `O=C1NC(=S)N(c2ccccc2F)C(=O)C1=Cc1ccco1`, the IC50 was 1.1 µM. In the case of `CC(C)OC(=O)c1cc(O)c(O)c(O)c1`, the IC50 is reported as > 100 µM (inactive). Molecule `C=CCN1C(=O)/C(=C\c2ccc([N+](=O)[O-])o2)C(=O)NC1=S` has an IC50 of 72 µM. In the case of `Oc1ccc2ccccc2c1C=NCc1c(O)ccc2ccccc12`, the IC50 is reported as “inactive”. With `Cc1sc(NC(=O)C2CCCO2)c(C(N)=O)c1C` (stereo not given) the IC50 was > 100 µM (inactive). With `O=C1NC(=S)N(c2ccc(Cl)cc2)C(=O)/C1=C/c1ccc(Br)o1` the IC50 was 1.7 µM. In the case of `CCOc1ccc(C2=CC(=O)C=CC2=O)cc1`, the IC50 is reported as “inactive”. In the case of `O=c1c(O)c(-c2ccc(O)c(O)c2)oc2cc(O)cc(O)c12`, the IC50 is reported as “inactive”. Work on `O=C(CSc1nc2ccccc2s1)c1sc2sc3ccccc3[n+]2c1[O-]` yielded an IC50 of 0.6 µM. For `O=C1NC(=S)S/C1=C/c1cccc(OCc2ccc(Cl)c(Cl)c2)c1`, the IC50 was 4.4 µM. Work on `S=C(Nc1ccc2c(c1)Cc1ccccc1-2)Nc1ccc2c(c1)Cc1ccccc1-2` yielded an IC50 of 4 µM. Work on `O=C1C=CC(=O)C(c2cccc(Cl)c2)=C1` yielded an IC50 of 8.8 µM. In the case of `Oc1cc(O)c2cc(O)c(-c3ccc(O)c(O)c3)[o+]c2c1`, the IC50 is reported as 0.4 µM. `CC1=NN(c2ccc(S(N)(=O)=O)cc2)C(=O)/C1=C/c1ccc(-c2ccc(Cl)cc2Cl)o1` gave an IC50 of 9 µM. With `CC(=O)C1=C(O)[C@@]2(O)C(=O)c3c(c(C)c4ccc(C)c(O)c4c3O)C[C@H]2[C@@H](N)C1=O` the IC50 was 9 µM. Work on `O=C(Nc1ccc(N2CCN(C(=O)c3ccccc3)CC2)cc1)c1ccc(-c2ccccc2)cc1` yielded an IC50 of 3.8 µM. Molecule `O=C(N/N=C/c1ccc(/C=N/NC(=O)c2ccc(O)c(O)c2)cc1)c1ccc(O)c(O)c1` has an IC50 of 2.1 µM.

Reference: PubChem BioAssay AID365 (MTDP, 2006)
